Legend:
CYP450 3A4 = CYP450 3A4 (Homo sapiens, UniProt P08684); experiment: CYP450 inhibition; type: in vitro ADME; details: % inhibition at 10 μM
CYP450 2D6 = CYP450 2D6 (Homo sapiens, UniProt P10635); experiment: CYP450 inhibition; type: in vitro ADME; details: % inhibition at 10 μM
JNK1 = JNK1 (Homo sapiens, UniProt P45983); experiment: Radiometric assay, Reaction Biology corporation; type: biochemical
hERG channels = hERG channels (Homo sapiens, UniProt Q12809); experiment: hERG inhibition
CYP450 2C19 = CYP450 2C19 (Homo sapiens, UniProt P33261); experiment: CYP450 inhibition; type: in vitro ADME; details: % inhibition at 10 μM
JNK3 = JNK3 (Homo sapiens, UniProt P53779); experiment: JNK3 enzyme-linked immunosorbent assay; type: biochemical
[1] = test system: panel of 45 diverse kinases; experiment: ExpresS Diversity Kinase Panel, whole panel; type: biochemical, human; details: panel of 45 kinases, 10 μM, including JNK1
CYP450 1A9 = experiment: CYP450 inhibition; type: in vitro ADME; details: % inhibition at 10 μM
p38α MAPK = p38α MAPK (Homo sapiens, UniProt Q16539); experiment: p38α MAPK enzyme-linked immunosorbent assay; type: biochemical; details: for inhibition at 10 µM: read-out: Percent inhibition of p38α MAPK at indicated concentration; for fold higher activity for p38α MAPK than for JNK3: ratio of IC50 values
CYP450 2C9 = CYP450 2C9 (Homo sapiens, UniProt P11712); experiment: CYP450 inhibition; type: in vitro ADME; details: % inhibition at 10 μM
JNK2 = JNK2 (Homo sapiens, UniProt P45984); experiment: Radiometric assay, Reaction Biology corporation; type: biochemical
[2] = In vitro metabolic stability in human liver microsomes; type: in vitro ADME; details: after 4 h incubation

Chain of JNK3 (P53779 whole entry): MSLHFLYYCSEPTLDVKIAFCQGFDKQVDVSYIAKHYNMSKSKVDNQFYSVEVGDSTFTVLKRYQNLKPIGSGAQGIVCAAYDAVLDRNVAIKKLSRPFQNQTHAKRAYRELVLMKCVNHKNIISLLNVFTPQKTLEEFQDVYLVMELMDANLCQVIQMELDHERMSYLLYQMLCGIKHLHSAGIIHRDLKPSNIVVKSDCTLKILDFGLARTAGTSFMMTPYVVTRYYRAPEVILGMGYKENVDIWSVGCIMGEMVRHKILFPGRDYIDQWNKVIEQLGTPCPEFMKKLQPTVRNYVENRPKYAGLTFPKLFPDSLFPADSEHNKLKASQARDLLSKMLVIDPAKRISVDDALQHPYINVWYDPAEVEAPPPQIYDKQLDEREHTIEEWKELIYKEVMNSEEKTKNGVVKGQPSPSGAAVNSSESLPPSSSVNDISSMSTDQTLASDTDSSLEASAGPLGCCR
Chain of p38α MAPK (Q16539 whole entry): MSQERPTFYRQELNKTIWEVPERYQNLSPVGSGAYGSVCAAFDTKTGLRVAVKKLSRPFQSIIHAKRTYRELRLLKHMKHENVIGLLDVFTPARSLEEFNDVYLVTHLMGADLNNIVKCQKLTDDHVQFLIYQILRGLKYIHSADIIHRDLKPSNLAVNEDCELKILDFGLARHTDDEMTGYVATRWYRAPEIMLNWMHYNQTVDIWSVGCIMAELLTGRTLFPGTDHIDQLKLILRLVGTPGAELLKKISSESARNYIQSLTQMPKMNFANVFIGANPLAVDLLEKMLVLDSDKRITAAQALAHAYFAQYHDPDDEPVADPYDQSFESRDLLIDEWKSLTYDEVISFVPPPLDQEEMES
Chain of hERG channels (Q12809 whole entry): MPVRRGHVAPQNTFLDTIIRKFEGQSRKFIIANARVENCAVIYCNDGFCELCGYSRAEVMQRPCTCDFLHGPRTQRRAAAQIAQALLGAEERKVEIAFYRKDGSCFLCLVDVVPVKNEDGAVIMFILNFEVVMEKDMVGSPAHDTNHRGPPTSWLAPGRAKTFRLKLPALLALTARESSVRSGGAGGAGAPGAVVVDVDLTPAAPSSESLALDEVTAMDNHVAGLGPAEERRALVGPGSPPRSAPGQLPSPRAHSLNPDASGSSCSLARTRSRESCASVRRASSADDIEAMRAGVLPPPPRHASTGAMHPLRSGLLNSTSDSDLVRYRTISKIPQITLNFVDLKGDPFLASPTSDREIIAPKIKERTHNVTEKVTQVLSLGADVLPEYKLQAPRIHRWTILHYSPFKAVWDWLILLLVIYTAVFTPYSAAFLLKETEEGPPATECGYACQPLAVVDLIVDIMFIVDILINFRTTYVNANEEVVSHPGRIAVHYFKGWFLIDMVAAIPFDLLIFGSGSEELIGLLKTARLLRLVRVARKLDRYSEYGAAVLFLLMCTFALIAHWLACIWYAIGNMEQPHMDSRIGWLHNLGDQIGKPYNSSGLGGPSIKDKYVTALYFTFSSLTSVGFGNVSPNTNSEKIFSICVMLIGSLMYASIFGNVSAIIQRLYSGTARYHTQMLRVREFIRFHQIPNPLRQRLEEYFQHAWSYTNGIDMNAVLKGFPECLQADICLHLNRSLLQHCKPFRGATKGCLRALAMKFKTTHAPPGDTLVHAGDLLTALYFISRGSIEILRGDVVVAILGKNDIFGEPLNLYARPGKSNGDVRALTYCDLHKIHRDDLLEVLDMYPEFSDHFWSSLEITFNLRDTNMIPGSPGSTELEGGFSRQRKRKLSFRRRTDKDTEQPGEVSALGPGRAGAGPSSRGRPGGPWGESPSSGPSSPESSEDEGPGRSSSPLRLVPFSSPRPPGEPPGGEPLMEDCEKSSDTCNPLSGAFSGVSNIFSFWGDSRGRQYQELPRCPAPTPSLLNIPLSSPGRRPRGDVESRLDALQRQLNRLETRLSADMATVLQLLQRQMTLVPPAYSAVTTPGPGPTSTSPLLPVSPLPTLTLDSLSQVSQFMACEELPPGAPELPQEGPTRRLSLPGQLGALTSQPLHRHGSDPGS
Chain of CYP450 3A4 (P08684 whole entry): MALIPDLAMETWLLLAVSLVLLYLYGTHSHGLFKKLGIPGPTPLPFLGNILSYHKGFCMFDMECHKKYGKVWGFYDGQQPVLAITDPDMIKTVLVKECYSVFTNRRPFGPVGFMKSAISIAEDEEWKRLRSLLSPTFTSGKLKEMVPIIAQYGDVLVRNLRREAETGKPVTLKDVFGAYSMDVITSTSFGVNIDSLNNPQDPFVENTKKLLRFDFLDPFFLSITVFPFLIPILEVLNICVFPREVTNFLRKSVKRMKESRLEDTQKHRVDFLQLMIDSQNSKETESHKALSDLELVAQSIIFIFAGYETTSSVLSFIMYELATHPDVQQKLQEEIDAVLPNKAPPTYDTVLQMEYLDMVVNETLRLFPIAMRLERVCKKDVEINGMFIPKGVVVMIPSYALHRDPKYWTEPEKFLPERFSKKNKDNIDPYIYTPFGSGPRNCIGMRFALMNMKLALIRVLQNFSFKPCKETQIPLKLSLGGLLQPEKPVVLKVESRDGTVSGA
Chain of CYP450 2D6 (P10635 whole entry): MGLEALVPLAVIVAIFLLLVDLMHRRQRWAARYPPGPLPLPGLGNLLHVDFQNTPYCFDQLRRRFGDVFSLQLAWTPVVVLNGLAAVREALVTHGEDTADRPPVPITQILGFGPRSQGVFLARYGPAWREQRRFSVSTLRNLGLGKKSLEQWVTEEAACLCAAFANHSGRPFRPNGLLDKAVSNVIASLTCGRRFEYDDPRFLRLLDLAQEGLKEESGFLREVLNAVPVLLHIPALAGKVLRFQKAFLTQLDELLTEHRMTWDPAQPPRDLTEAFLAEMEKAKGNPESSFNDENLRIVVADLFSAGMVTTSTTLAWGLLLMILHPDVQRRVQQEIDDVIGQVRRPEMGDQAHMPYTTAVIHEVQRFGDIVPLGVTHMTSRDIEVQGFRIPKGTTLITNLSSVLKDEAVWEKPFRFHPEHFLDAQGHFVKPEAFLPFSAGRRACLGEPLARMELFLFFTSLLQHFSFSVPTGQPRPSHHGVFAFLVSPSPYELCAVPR
Chain of CYP450 2C9 (P11712 whole entry): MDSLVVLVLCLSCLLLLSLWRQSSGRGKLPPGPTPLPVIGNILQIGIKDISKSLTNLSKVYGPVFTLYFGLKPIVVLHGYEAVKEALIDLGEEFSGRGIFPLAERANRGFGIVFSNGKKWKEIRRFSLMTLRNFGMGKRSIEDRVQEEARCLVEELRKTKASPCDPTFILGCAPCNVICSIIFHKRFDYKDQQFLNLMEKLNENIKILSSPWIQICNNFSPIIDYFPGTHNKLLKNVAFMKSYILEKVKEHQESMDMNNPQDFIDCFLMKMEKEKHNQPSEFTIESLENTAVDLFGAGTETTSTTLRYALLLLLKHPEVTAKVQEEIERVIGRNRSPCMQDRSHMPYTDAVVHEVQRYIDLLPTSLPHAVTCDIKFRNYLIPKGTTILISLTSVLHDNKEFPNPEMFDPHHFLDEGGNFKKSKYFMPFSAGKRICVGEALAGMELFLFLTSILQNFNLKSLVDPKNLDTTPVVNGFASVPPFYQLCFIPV
Chain of JNK1 (P45983 whole entry): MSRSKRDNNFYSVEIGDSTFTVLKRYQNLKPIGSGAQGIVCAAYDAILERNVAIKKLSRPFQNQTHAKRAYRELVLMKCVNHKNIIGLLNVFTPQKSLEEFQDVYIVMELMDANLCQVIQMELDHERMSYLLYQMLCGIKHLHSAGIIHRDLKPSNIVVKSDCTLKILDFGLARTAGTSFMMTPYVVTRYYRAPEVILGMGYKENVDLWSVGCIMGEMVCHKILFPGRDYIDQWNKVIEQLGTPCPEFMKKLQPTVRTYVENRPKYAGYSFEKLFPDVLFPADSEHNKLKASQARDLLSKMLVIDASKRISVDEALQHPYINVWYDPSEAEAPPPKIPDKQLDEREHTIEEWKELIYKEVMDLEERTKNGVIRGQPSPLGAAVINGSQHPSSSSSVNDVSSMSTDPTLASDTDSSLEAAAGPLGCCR
Chain of JNK2 (P45984 whole entry): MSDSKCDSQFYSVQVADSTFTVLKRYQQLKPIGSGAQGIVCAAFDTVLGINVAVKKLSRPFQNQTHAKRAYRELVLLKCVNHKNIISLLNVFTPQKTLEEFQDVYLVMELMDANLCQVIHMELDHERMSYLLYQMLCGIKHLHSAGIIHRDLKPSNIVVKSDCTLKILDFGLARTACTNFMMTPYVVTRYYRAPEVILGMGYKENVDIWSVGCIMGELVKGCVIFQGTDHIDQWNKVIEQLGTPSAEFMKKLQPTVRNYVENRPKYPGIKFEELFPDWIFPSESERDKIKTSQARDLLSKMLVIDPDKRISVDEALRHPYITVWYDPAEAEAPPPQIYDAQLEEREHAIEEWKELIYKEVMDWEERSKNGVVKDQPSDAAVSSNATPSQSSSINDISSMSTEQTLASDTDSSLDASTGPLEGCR
Chain of CYP450 2C19 (P33261 whole entry): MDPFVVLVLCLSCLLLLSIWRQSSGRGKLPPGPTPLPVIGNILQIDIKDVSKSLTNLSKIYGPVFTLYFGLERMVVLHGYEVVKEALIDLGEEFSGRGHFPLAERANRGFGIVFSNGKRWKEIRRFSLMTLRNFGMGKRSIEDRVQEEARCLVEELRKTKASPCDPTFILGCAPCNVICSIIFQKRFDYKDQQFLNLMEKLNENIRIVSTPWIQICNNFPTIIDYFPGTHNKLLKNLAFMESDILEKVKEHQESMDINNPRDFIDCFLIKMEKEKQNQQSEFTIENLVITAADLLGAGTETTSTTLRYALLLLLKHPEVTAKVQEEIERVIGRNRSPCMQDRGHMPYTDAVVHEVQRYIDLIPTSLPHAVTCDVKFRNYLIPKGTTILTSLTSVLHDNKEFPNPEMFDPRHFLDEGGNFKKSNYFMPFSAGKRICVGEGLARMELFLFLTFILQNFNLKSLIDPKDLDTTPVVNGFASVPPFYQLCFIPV

Compound	IC50 (JNK3)	IC50 (p38α MAPK)	inhibition at 10 µM (p38α MAPK)	also measured
CSc1nc(C)c(-c2ccnc(Nc3ccc(N4CCOCC4)cc3)c2)[nH]1 [Compound 44, 4-(4-Methyl-2-(methylthio)-1H-imidazol-5-yl)-N-(4-morpholinophenyl)pyridin-2-amine]	363 ± 34 nM	> 10000 nM	48%	CYP450 inhibition 3A4 (CYP450 3A4): 75.1%; CYP450 inhibition 2D6 (CYP450 2D6): 19.0%; IC50 (JNK1): 119 nM; IC50 (hERG channels): > 10000 nM; hERG inhibition [% inhibition at 10 μM] (hERG channels; 10 μM): 38.8%; CYP450 inhibition 2C19 (CYP450 2C19): 35.6%; fold increase in the inhibitory potency on JNK3 over analogue 38 (JNK3): 2 fold; number of kinases inhibited more than 50% [1]: 10; CYP450 inhibition 1A9 (CYP450 1A9): 51.5%; CYP450 inhibition 2C9 (CYP450 2C9): 53.9%; IC50 (JNK2): 468 nM; unmodified compound still present [2]: approximately 80%
Fc1ccc(-n2cncc2-c2ccnc(Nc3ccc(N4CCOCC4)cc3)c2)cc1 [Compound 66, 4-(1-(4-Fluorophenyl)-1H-imidazol-5-yl)-N-(4-morpholinophenyl)pyridin-2-amine]	276 ± 10 nM	323 ± 14 nM	–	–
CSc1ncc(-c2ccnc(Nc3ccc(N4CCOCC4)cc3)c2)[nH]1 [Compound 43, 4-(2-(Methylthio)-1H-imidazol-5-yl)-N-(4-morpholinophenyl)pyridin-2-amine]	562 ± 21 nM	> 10000 nM	43%	–
CSc1nc(C)c(-c2ccnc(N[C@H]3CC[C@H](O)CC3)c2)[nH]1 [Compound 48g, trans-4-((4-(4-Methyl-2-(methylthio)-1H-imidazol-5-yl)pyridin-2-yl)amino)cyclohexan-1-ol]	457 ± 72 nM	> 10000 nM	35%	–
Cn1cc(-c2nc[nH]c2-c2ccnc(Nc3ccc(N4CCOCC4)cc3)c2)cn1 [Compound 18f, 4-(4-(1-Methyl-1H-pyrazol-4-yl)-1H-imidazol-5-yl)-N-(4-morpholinophenyl)pyridin-2-amine]	758 ± 49 nM	3260 nM	–	–
CSc1nc(-c2ccnc(Nc3ccc(N4CCOCC4)cc3)c2)c(C)n1C [Compound 50, 4-(1,5-Dimethyl-2-(methylthio)-1H-imidazol-4-yl)-N-(4-morpholinophenyl)pyridin-2-amine]	1280 nM	> 10000 nM	37%	–
FC(F)(F)c1cccc(-c2nc[nH]c2-c2ccnc(Nc3ccc(N4CCOCC4)cc3)c2)c1 [Compound 18d, N-(4-Morpholinophenyl)-4-(4-(3-(trifluoromethyl)phenyl)-1H-imidazol-5-yl)pyridin-2-amine]	143 ± 12 nM	22 ± 3 nM	–	fold higher activity for p38α MAPK than for JNK3 (p38α MAPK): 6 fold
c1cc(-c2[nH]cnc2C2CCCCC2)cc(Nc2ccc(N3CCOCC3)cc2)n1 [Compound 18g, 4-(4-Cyclohexyl-1H-imidazol-5-yl)-N-(4-morpholinophenyl)pyridin-2-amine]	1720 nM	726 ± 21 nM	–	fold higher activity for p38α MAPK than for JNK3 (p38α MAPK): 2 fold
Cc1nc[nH]c1-c1ccnc(Nc2ccc(N3CCOCC3)cc2)c1 [Compound 38, 4-(4-Methyl-1H-imidazol-5-yl)-N-(4-morpholinophenyl)pyridin-2-amine]	833 ± 139 nM	> 10000 nM	41%	–
CSc1nc(C)c(-c2ccnc(NC(C)c3ccccc3)c2)[nH]1 (centres unmarked) [Compound 48b, 4-(4-Methyl-2-(methylthio)-1H-imidazol-5-yl)-N-(1-phenylethyl)pyridin-2-amine]	7610 nM	3460 nM	–	–
CCc1nc(SC)[nH]c1-c1ccnc(Nc2ccc(N3CCOCC3)cc2)c1 [Compound 45, 4-(4-Ethyl-2-(methylthio)-1H-imidazol-5-yl)-N-(4-morpholinophenyl)pyridin-2-amine]	1100 nM	> 10000 nM	38%	–
CCn1c(SC)nc(C)c1-c1ccnc(Nc2ccc(N3CCOCC3)cc2)c1 [Compound 58, 4-(1-Ethyl-4-methyl-2-(methylthio)-1H-imidazol-5-yl)-N-(4-morpholinophenyl)pyridin-2-amine]	2090 nM	> 10000 nM	21%	–
Clc1ccccc1-c1nc[nH]c1-c1ccnc(Nc2ccc(N3CCOCC3)cc2)c1 [Compound 18b, 4-(4-(2-Chlorophenyl)-1H-imidazole-5-yl)-N-(4-morpholinophenyl)pyridin-2-amine]	60 ± 8 nM	38 ± 2 nM	–	–
CSc1nc(C)c(-c2ccnc(NC3CCCCC3)c2)[nH]1 [Compound 48e, N-Cyclohexyl-4-(4-methyl-2-(methylthio)-1H-imidazol-5-yl)pyridin-2-amine]	671 ± 74 nM	> 10000 nM	31%	–
